Measurements as given in the METLIN SMRT retention time set (Domingo-Almenara et al. 2019).

Assay: gradient 5% acetonitrile 3 min, to 50% in 2 min, to 85% in 15 min, held 3 min, 100 µL/min
Settings: column: Zorbax Extend-C18 2.1 x 50 mm; eluents: water / acetonitrile, 0.1% formic acid
Method in brief: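 Pure standards were run in mixtures of ~100 molecules by HPLC coupled to a quadrupole time-of-flight mass spectrometer. The column was a Zorbax Extend-C18 (2.1 × 50 mm, 1.8 μm) at 100 μL/min, with water and acetonitrile each containing 0.1% formic acid, in positive and negative ionization mode. Dead and dwell volumes were 40 μL and 900 μL. Retention time was taken from computationally picked adduct peaks, each manually inspected, with data collected over 3 months.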

Row | RP-LC retention time [s] | Structure (SMILES)
1 | 888 | CCOC(=O)CN1N=C(C(=O)N2CCC(C)CC2)S(=O)(=O)c2ccccc21
2 | 777 | COCc1c(C(=O)O)nnn1-c1ccc2c(c1)CCC2
3 | 748 | Fc1ccccc1-c1noc(NCC2CCCO2)n1 (stereo unspecified)
4 | 988 | Cc1ccc(Sc2cc3c(cc2NC(=O)c2ccco2)n(C)c(=O)n3C)cc1
5 | 948 | Cc1cc(F)ccc1NC(=O)Cn1cc2c(n1)CCC(C)C2 (stereo unspecified)
6 | 612 | CC(C(=O)N1CCN(C)CC1)n1c2ccccc2c2cnn(C)c(=O)c21 (stereo unspecified)
7 | 638 | CCC1CCCCN1CCCNC(=O)c1c(N2CCCC2=O)c2cc(OC)ccc2n1C (stereo unspecified)
8 | 824 | Cc1ccc(Cn2c(=O)n(CCNC(=O)c3ccc4c(c3)OCO4)c3ncccc32)cc1
9 | 991 | Cc1ccc(CNc2nc(-c3nnc(-c4ccccc4)o3)nc3ccccc23)o1
10 | 638 | COCCCNC(=O)c1c(OCC(C)C)cc(=O)n2c1CCCCC2
11 | 597 | CSCc1noc(Cn2ccc3ccn(CCN(C)C)c3c2=O)n1
12 | 686 | O=C(Cc1ccsc1)Nc1cnc(N2CCOCC2)nc1
13 | 941 | CCCN1C(=O)COc2ccc(-c3noc(C4CC(=O)N(c5ccc(C)cc5)C4)n3)cc21 (stereo unspecified)
14 | 604 | CCN1C(=O)c2cc(C(=O)N3CCC(N4CCCCC4)CC3)nn2CC1(C)C(=O)NC1CCCC1 (stereo unspecified)
15 | 641 | Cc1cc(=O)n(CC(=O)Nc2cc(F)ccc2F)c(N2CCCC2)n1
16 | 1130 | Clc1ccccc1N1CCN(c2cc(-c3nc(-c4ccccc4)no3)c3ccccc3n2)CC1
17 | 1150 | O=C(COc1ccccc1F)Nc1cc(C(F)(F)F)ccc1Cl

Continued, molecule first:

Row | Structure (SMILES) | RP-LC retention time [s]
18 | CC(C)(C)c1ccc(S(=O)(=O)Nc2cccc(C(=O)O)c2)cc1 | 810
19 | Cc1cc(N2CCOCC2)n2nc(CN3CCN(c4ccccc4C)CC3)nc2n1 | 636
20 | CCN(CC)S(=O)(=O)N1CCC(C(=O)Nc2ccc3sc(NC(=O)C(C)C)nc3c2)CC1 | 854
21 | Cc1ccc(-n2c(N3CCCC(C(=O)NC(C)c4cccnc4)C3)nc3ccsc3c2=O)cc1 (stereo unspecified) | 633
22 | COc1ccc(-c2cn3c(CC(=O)N4CCN(c5cccc(Cl)c5)CC4)csc3n2)cc1OC | 835
23 | COc1cc(NC(=O)c2ncoc2-c2ccc(C)o2)cc(OC)c1OC | 920
24 | COc1ccc(N2C(=O)N[C@@H]3C[C@]2(C)Oc2ccc(C)cc23)c(OC)c1 | 870
25 | COc1ccccc1NC(=O)N1CCN(Cc2nc3ccc(Cl)cc3o2)CC1 | 731
26 | CCc1nc(-c2csc(S(=O)(=O)N3CCCC(C(=O)Nc4ccc(C)c(C)c4)C3)c2)no1 (stereo unspecified) | 1110
27 | Cn1c(SCc2ccc([N+](=O)[O-])cc2)nnc1-c1ccc2c(c1)OCO2 | 721
28 | CNC(=O)c1ccc(-c2nc3cc(NS(=O)(=O)c4cc(F)ccc4C)ccc3n2C)cc1 | 832
29 | CCC(C)NC(=O)C1CCN(c2nc3cccnc3s2)CC1 (stereo unspecified) | 664
30 | CC1=C(c2ccc(F)cc2)S(=O)(=O)N=C1N1CCC(NC(=O)CCC(C)C)CC1 | 844
31 | Cc1noc(C)c1CCNC(=O)C1CCCN(c2nc3ccccc3n(Cc3ccccc3)c2=O)C1 (stereo unspecified) | 974
32 | Cn1c(=O)n(C)c2cc(S(=O)(=O)c3ccc(F)cc3)c(NC(=O)Cc3ccc(F)cc3)cc21 | 874
33 | CC(C)Oc1ccc(CNC(=O)CCCN2C(=O)CCn3nc(-c4cccn4C)cc32)cc1 | 833
34 | CCC(CN(C)Cc1ccccc1)NS(=O)(=O)c1ccc2[nH]c(=O)ccc2c1 (stereo unspecified) | 600
35 | O=S1(=O)CCC(Nc2ncnc3c2cnn3-c2ccc(Cl)c(Cl)c2)C1 (stereo unspecified) | 903
36 | Cc1noc(C)c1CNC(=O)NCCc1ccccc1 | 689
